We go through five molecules from patent publication US4373094A, “Anthracycline derivatives” (Sanraku-Ocean Co., Ltd., priority 1980, dated 1983).

Each structure is given as a SMILES string. Values after ≈ are worked out from the molar mass of the structure shown.

Data set [1] relates to mouse leukemia L1210 cells. Briefly: Growth inhibition of cultured mouse leukemia L1210 cells (living cells counted). Type of data set: cell-based. Particulars: for IC50: Mus musculus, L1210, L1210 cells, read-out: 50% Inhibitory concentration, Growth inhibition after 24 hours; for antitumor effect on L1210 leukemia cells: in words. On the procedure:
The L1210 cells were cultivated at 37° C. overnight and transferred to RPMI (Roswell Park Memorial Institute) 1640 medium containing 20% calf serum at their exponential growth phase so as to give a cell concentration of 4×10^4 cells/ml. The compounds of the present invention were added to the medium at a concentration of 0.02-0.5 μg/ml. […]
(§1) Independently of the above-mentioned experiment, the compounds of the present invention were added to an about 5×10^5 cells/ml L1210 cell suspension in RPMI 1640 medium containing 10% calf serum at a concentration of 0.02-2.5 μg/ml. After 15 minutes, ^14 C-uridine (0.05 μCi/ml) or ^14 C-thymidine (0.05 μCi/ml) was added to the suspension and pulse-labeling was carried out at 37° C. for 60 minutes. The reaction was stopped by addition of a cold 10% trichloroacetic acid solution and an acid-insoluble fraction was precipitated. The precipitate was washed with a cold 5% trichloroacetic acid and the radioactivity was measured.

In data set [2] the test system is L1210 cells. Briefly: Inhibition of DNA synthesis (14C-thymidine incorporation) in L1210 cells. Type of data set: cell-based, mouse. Particulars: RPMI 1640 medium containing 10% calf serum, pulse-labeling 37° C. for 60 minutes; for IC50: Mus musculus, 1 h, read-out: 50% Inhibitory concentration, 14C-Thymidine (Inhibition of DNA synthesis). The procedure:
as §1
On the technique in general: Incorporation of labelled thymidine or its analogues reports DNA synthesis.

The test system of data set [3] is L1210 cells. Description: Inhibition of RNA synthesis (14C-uridine incorporation) in L1210 cells. Type of data set: cell-based, mouse. Particulars: RPMI 1640 medium containing 10% calf serum, pulse-labeling 37° C. for 60 minutes; for IC50: Mus musculus, L1210, 1 h, read-out: 50% Inhibitory concentration, 14C-Uridine (Inhibition of RNA synthesis). On the procedure:
as §1

The next data set can be described thus: Solubility in solvents. The class given is physicochemical. The settings on record: for Solubilities: slightly soluble: slightly soluble solvents; for Solubilities: soluble: soluble solvents.
[4] abbreviates: RPMI 1640 medium containing 20% calf serum, 37° C., head: after 24 hours (text: 3 days).

Turning to `CCC1(O)CC(OC2CC(N(C)C)C(OC3CC(O)C(OC4CCC(=O)C(C)O4)C(C)O3)C(C)O2)c2c(cc3c(c2O)C(=O)c2c(O)cc(O)cc2C3=O)C1C(=O)OC` (stereo not shown) [2-hydroxy-aclacinomycin A, reference compound], the IC50 is 0.15 µg/mL (≈ 0.181 µM) in data set [1] (setting [4]), 0.9 µg/mL (≈ 1.09 µM) in the data set on L1210 cells [2] and 0.14 µg/mL (≈ 0.169 µM) with L1210 cells [3].

Consider `CCC1(O)CC(OC2CC(N(C)C)C(OC3CC(O)C(OC4CCC(O)C(C)O4)C(C)O3)C(C)O2)c2c(cc3c(c2O)C(=O)c2c(O)cc(O)cc2C3=O)C1C(=O)OC` (stereo not shown) [2-hydroxy-aclacinomycin M], for which the IC50 in data set [1] (setting [4]) was 0.08 µg/mL (≈ 0.0964 µM); with L1210 cells [2] it was 1.2 µg/mL (≈ 1.45 µM); with L1210 cells [3], 0.1 µg/mL (≈ 0.12 µM). Besides, the “antitumor effect on L1210 leukemia cells” value in data set [1] is listed as “have an antitumor effect on L1210 leukemia cells”. Moreover, the “Solubilities: slightly soluble” value in “Solubility in solvents” is “slightly soluble in water, ether and n-hexane”. Besides, the “Solubilities: soluble” value in the data set “Solubility in solvents” is “soluble in acidic water, methanol, ethanol, n-butanol, acetone, ethyl acetate, chloroform, benzene, toluene, dimethylsulfoxide and methyl cellosolve”.

For the molecule `CCC1(O)CC(OC2CC(N(C)C)C(OC3CC(O)C(OC4CCC(O)C(C)O4)C(C)O3)C(C)O2)c2c(cc3c(c2O)C(=O)c2c(O)cc(O)cc2C3=O)C1C(=O)OC` (stereo not shown) [2-hydroxy-aclacinomycin N], in data set [1] (L1210 cells, RPMI 1640 medium containing 20% calf serum, 37° C., head: after 24 hours (text: 3 days)), the “50% Inhibitory concentration, Growth inhibition after 24 hours” value was determined as 0.095 µg/mL. Also, the “antitumor effect on L1210 leukemia cells” value in data set [1] is on record as “have an antitumor effect on L1210 leukemia cells”. For the same molecule, the “50% Inhibitory concentration, 14C-Thymidine (Inhibition of DNA synthesis)” value with L1210 cells [2] was determined as 1.2 µg/mL. For the same molecule, in the data set “Solubility in solvents”, the “Solubilities: slightly soluble” value is “slightly soluble in water, ether and n-hexane”; the “Solubilities: soluble” value was “soluble in acidic water, methanol, ethanol, n-butanol, acetone, ethyl acetate, chloroform, benzene, toluene, dimethylsulfoxide and methyl cellosolve”. For the same molecule, the “50% Inhibitory concentration, 14C-Uridine (Inhibition of RNA synthesis)” value with L1210 cells [3] was determined as 0.18 µg/mL.

Consider `CCC1(O)CC(OC2CC(N(C)C)C(OC3CC(O)C(O)C(C)O3)C(C)O2)c2c(cc3c(c2O)C(=O)c2c(O)cc(O)cc2C3=O)C1C(=O)OC` (stereo not shown) [2-hydroxy-aclacinomycin S], for which the IC50 in data set [1] (setting [4]) came out at 0.7 µg/mL (≈ 0.978 µM). In addition, the “antitumor effect on L1210 leukemia cells” value in data set [1] was “have an antitumor effect on L1210 leukemia cells”. Also, in the data set “Solubility in solvents”, the “Solubilities: slightly soluble” value is “slightly soluble in water, ether and n-hexane”; the “Solubilities: soluble” value is “soluble in acidic water, methanol, ethanol, n-butanol, acetone, ethyl acetate, chloroform, benzene, toluene, dimethylsulfoxide and methyl cellosolve”. For the same molecule, the IC50 in the data set on L1210 cells [3] was determined as 1.3 µg/mL (≈ 1.82 µM).

With `CCC1(O)CC(OC2CC(N(C)C)C(O)C(C)O2)c2c(cc3c(c2O)C(=O)c2c(O)cc(O)cc2C3=O)C1C(=O)OC` (stereo not shown) [2-hydroxy-aclacinomycin T], in data set [1] (setting [4]), the IC50 is 0.46 µg/mL (≈ 0.786 µM). Also, the “antitumor effect on L1210 leukemia cells” value in data set [1] is “have an antitumor effect on L1210 leukemia cells”. For the same molecule, in the data set “Solubility in solvents”, the “Solubilities: slightly soluble” value is “slightly soluble in water, ether and n-hexane”; the “Solubilities: soluble” value was “soluble in acidic water, methanol, ethanol, n-butanol, acetone, ethyl acetate, chloroform, benzene, toluene, dimethylsulfoxide and methyl cellosolve”. The IC50 in the data set with L1210 cells [3] is 1 µg/mL (≈ 1.71 µM).
